Experimental data from article PMC8100446, “Perillaldehyde Inhibition of cGAS Reduces dsDNA-Induced Interferon Response” (Frontiers in Immunology, 2021).

Target: T1, cyclic GMP-AMP synthase (cGAS) (Homo sapiens, UniProt Q8N884)
T1 construct: purified recombinant full-length cGAS
Assay: in vitro cGAS enzymatic assay, cGAMP production measured by HPLC-MS
Assay type: biochemical

T1 sequence (Q8N884 whole entry): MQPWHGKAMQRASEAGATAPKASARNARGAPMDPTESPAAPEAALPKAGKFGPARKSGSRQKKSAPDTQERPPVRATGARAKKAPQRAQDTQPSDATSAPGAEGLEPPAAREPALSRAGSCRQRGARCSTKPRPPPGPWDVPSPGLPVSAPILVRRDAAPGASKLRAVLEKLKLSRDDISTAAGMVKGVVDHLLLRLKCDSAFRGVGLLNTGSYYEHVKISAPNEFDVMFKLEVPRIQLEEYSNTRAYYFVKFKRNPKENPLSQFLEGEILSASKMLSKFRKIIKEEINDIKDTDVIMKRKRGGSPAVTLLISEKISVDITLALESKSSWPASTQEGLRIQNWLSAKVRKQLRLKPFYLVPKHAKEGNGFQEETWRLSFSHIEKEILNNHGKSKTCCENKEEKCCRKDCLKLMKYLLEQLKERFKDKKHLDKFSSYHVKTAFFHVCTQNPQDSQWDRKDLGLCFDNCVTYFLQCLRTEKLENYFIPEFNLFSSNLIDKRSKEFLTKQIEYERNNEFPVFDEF

SMILES: C=C(C)C1CC=C(C=O)CC1 (stereo not shown) [PAH, perillaldehyde]
- IC50: 31.3 µM
